# pEC50: −log10 of the molar value. Structures can show the parent of a compound that is named as a salt. Where two headings read alike, the source gives them in different places.
# Experiments:
# [1] = test system: NQO1 specific enzyme activity in BEAS-2B cells; test: BEAS-2B NQO1 MTT Assay; format: cell-based; details: NQO1 specific activity induction, BEAS-2B cells, 48 hours, read-out: EC50
# Excerpt: NAD(P)H:quinone oxidoreductase 1 (NQO1), also called DT diaphorase, is a homodimeric FAD-containing enzyme that catalyzes obligatory NAD(P)H-dependent two-electron reductions of quinones and protects cells against the toxic and neoplastic effects of free radicals and reactive oxygen species arising from one-electron reductions. The transcription of NQO1 is finely regulated by NRF2, and thus NQO1 activity is a good marker for NRF2 activation. On day one, frozen BEAS-2B cells (ATCC) were thawed in a water bath, counted, and re-suspended at a concentration of 250,000 cells/mL. Fifty microliters of cells were plated in 384 well black clear-bottomed plates. Plates were incubated at 37° C., 5% CO2 overnight. On day two, plates were centrifuged and 50 nL of compound or controls were added to the cells. Plates were then incubated at 37° C., 5% CO2 for 48 hours. On day four, medium was aspirated from the plate and crude cell lysates were made by adding 13 uL of 1× Cell Signaling Technologies lysis buffer with 1 Complete, Mini, EDTA-free Protease Inhibitor Tablet (Roche) for each 10 mL of lysis buffer. After lysis plates were incubated for 20 minutes at room temperature. Two microliters of lysate were removed for use in Cell Titer Glo assay (Promega) and MTT cocktail was prepared (Prochaska et. al. 1998) for measurement of NQO1 activity. Fifty microliters of MTT cocktail is added to each well, plate is centrifuged, and analyzed on an Envision plate reader (Perkin Elmer) using Absorbance 570 nm label for 30 minutes. Product formation was measured kinetically and the pEC50 of NQO1 specific activity induction was calculated by plotting the change in absorbance (Delta OD/min) versus the log of compound concentration followed by 3-parameter fitting. pEC50 is the negative log of the EC50.
# [2] = test system: histologic abnormalities, especially hepatic fibrosis; details: rats on a choline-deficient L-amino acid-defined diet; cited from earlier work
# [3] = test system: COPD macrophages and alveolar macrophages from cigarette smoke-exposed mice; details: cited from earlier work
# [4] = test system: cortical glutathione levels; details: NRF2 wild-type but not KO mice; cited from earlier work
# cortical damage = details: rats, cerebral ischemia-reperfusion model; cited from earlier work
smiles,measurement,setting,value
"CCOc1ccc(Br)cc1CN(Cc1cccc(-n2ncc(C(=O)O)c2[C@@H]2C[C@H]2c2cn(C)nn2)c1)C1CC1 (relative stereo) [Example 55, 1-(3-(((5-bromo-2-ethoxybenzyl)cyclo-propyl)amino)methyl)phenyl)-5-((trans)-2-(1-methyl-1H-1,2,3-triazol-4-yl)cyclopropyl)-1H-pyrazole-4-carboxylic acid trifluoroacetate]",pEC50,[1],6.00 to 7.00
O=C(NCc1ccccn1)Nc1nnc(-c2ccco2)o1 [NK-252],"progression of histologic abnormalities, especially hepatic fibrosis",[2],significantly attenuated
Cc1c(-c2cnccn2)ssc1=S [oltipraz],"progression of histologic abnormalities, especially hepatic fibrosis",[2],significantly attenuated
C[S+]([O-])CCCCN=C=S (centres unmarked) [Sulforaphane],expression of Macrophage Receptor with Collagenous structure (MARCO),[3]; COPD macrophages and alveolar macrophages from cigarette smoke-exposed mice,increases
same,"bacterial phagocytosis (Pseudomonas aeruginosa, non-typable Haemophilus influenzae) and bacterial clearance",[3]; ex vivo and in vivo,improving
CC(C)(C)c1cc(O)ccc1O [tert-butylhydroquinone],cortical glutathione levels,[4],increased in NRF2 wild-type but not KO mice
same,cortical damage,cortical damage,reduced cortical damage
"C[C@H]1Cc2ccc(C(F)(F)F)cc2S(=O)(=O)N([C@@H]2CCc3c2cccc3-n2ncc(C(=O)O)c2[C@@H]2C[C@H]2c2cn(C)nn2)C1 [Example 26b, 1-((R)-1-((S)-4-Methyl-1,1-dioxido-8-(trifluoromethyl)-4,5-dihydrobenzo[f][1,2]thiazepin-2(3H)-yl)-2,3-dihydro-1H-inden-4-yl)-5-((1R,2R)-2-(1-methyl-1H-1,2,3-triazol-4-yl)cyclopropyl)-1H-pyrazole-4-carboxylic acid]",pEC50,[1]; Homo sapiens,5.00 to 6.00

# Reference: patent US20200071310A1, “N-ARYL PYRAZOLES AS NRF2 REGULATORS” (GLAXOSMITHKLINE INTELLECTUAL PROPERTY DEVELOPMENT LIMITED, priority 2016, published 2020)
